Experimental data published in ChEMBL document CHEMBL5325506, “Discovery of neo-Clerodane Diterpenoids from Ajuga campylantha as Neuroprotective Agents against Ferroptosis and Neuroinflammation” (J Nat Prod, 2023).
Active and inactive are the calls of the source. The rule behind the calls is not given here.

Columns and labels:
BV-2 [1] = assay: Anti-inflammatory activity in mouse BV-2 cells assessed as inhibition of LPS-induced NO accumulation measured after 24 hrs by Griess reagent-based analysis; type: functional, cell-based; details: BV-2, 24 h
BV-2 [2] = assay: Cytotoxicity against mouse BV-2 cells assessed as reduction in cell viability at 10 to 30 uM incubated for 24 hrs by MTT assay; type: toxicity, cell-based; details: bv-2, 24 h, dose 10-30 µM
HT-22 [3] = assay: Cytotoxicity against mouse HT-22 cells assessed as reduction in cell viability at 30 uM incubated for 24 hrs by MTT assay; type: toxicity, cell-based; details: ht-22, 24 h
HT-22 [4] = assay: Inhibition of RSL3-induced ferroptosis in mouse HT-22 cells assessed as increase in cell viability at 30 uM incubated for 24 hrs by MTT assay; type: functional, cell-based
HT-22 [5] = assay: Inhibition of RSL3-induced ferroptosis in mouse HT-22 cells assessed as increase in cell viability incubated for 24 hrs by MTT assay; type: functional, cell-based; details: HT-22, 24 h
HT-22 [6] = assay: Inhibition of glutamate-induced ferroptosis in mouse HT-22 cells at 30 uM incubated for 24 hrs; type: functional, cell-based
[7] = Metal chelating activity assessed as Fe2+-compound complex formation at 50 mM in presence of FeSO4 by UV-Visible spectrophotometry
HT-22 [8] = assay: Inhibition of H2O2-induced necrosis in mouse HT-22 cells at 30 uM incubated for 24 hrs; type: functional, cell-based
[9] = Antioxidant activity assessed as DPPH radical scavenging activity at 100 uM measured after 30 mins by microplate spectrophotometer analysis; type: functional
HT-22 [10] = assay: Inhibition of STS-induced apoptosis in mouse HT-22 cells at 30 uM incubated for 24 hrs; type: functional, cell-based
HT-22 [11] = assay: Inhibition of TNFalpha/AZD5582/Z-VAD-fmk induced necroptosis in mouse HT-22 cells at 30 uM incubated for 24 hrs; type: functional, cell-based
HT-22 [12] = assay: Reversal of RSL3-induced morphological changes in mouse HT-22 cells incubated for 24 hrs; type: functional, cell-based; details: dose 3-30 µM
HT-22 [13] = assay: Inhibition of RSL3-induced ferroptosis in mouse HT-22 cells assessed as reduction in cytosolic ROS accumulation incubated for 4 hrs by carboxy-H2DCFDA based flow cytometric analysis; type: functional, cell-based; details: dose 3-30 µM
HT-22 [14] = assay: Inhibition of RSL3-induced ferroptosis in mouse HT-22 cells assessed as reduction in lipid accumulation incubated for 4 hrs by BODIPY-C11 based flow cytometric analysis; type: functional, cell-based; details: dose 3-30 µM
HT-22 [15] = assay: Inhibition of RSL3-induced ferroptosis in mouse HT-22 cells assessed as downregulation of PTGS2 mRNA expression at 10 to 30 uM incubated for 4 hrs by qRT-PCR analysis; type: functional, cell-based; details: dose 10-30 µM

In the case of `C=C1CCC[C@H]2[C@@]1(C)C(=O)C[C@@H](C)[C@]2(C)CCC1=CC(OC)OC1=O` (stereo partly specified), the IC50 (BV-2 [1]) is reported as 9.7 µM, the Activity (BV-2 [2]) is reported as “Non-Toxic” and the Activity (HT-22 [3]) is reported as “Non-Toxic”.

With `C=C1CCC[C@@H]2[C@@](C)(CCC3=CC(=O)OC3)[C@H](C)C[C@H](O)[C@@]12C` the Activity (HT-22 [3]) was “Non-Toxic”.

In the case of `C[C@@H]1C[C@@H]2OC(=O)[C@@H]3CCC[C@H]([C@@]1(C)CCc1ccoc1)[C@@]23C`, the Activity (HT-22 [3]) is reported as “Non-Toxic”.

In the case of `C=C1CCC[C@@H]2[C@@](C)(CCc3ccoc3)[C@H](C)C[C@H](O)[C@@]12C`, the inhibition (HT-22 [4]) is reported as “Active” and the Activity (HT-22 [3]) is reported as “Non-Toxic”.

With `CCO[C@@H]1C[C@@H]2C(C=O)=C(C)C[C@@H]2O1` the Activity (HT-22 [3]) was “Non-Toxic”.

In the case of `C=C1CCC[C@@H]2[C@@](C)(CCC3=CC(O)OC3=O)[C@H](C)C[C@H](O)[C@@]12C` (stereo partly specified), the Activity (HT-22 [3]) is reported as “Non-Toxic”.

In the case of `C=C1CCC[C@@H]2[C@@](C)(CCC3=C[C@@H](OCC)OC3=O)[C@H](C)C[C@H](O)[C@@]12C`, the Activity (HT-22 [3]) is reported as “Non-Toxic”.

With `CC(=O)OC[C@@]1(O)CCC[C@@H]2[C@@](C)(CCc3ccoc3)[C@H](C)C[C@H](O)[C@]21C` the Activity (HT-22 [3]) was “Non-Toxic”.

In the case of `C=C1CCC[C@@H]2[C@@](C)(CC[C@]3(O)[C@@H](OCC)O[C@H](OCC)[C@H]3O)[C@H](C)C[C@H](O)[C@@]12C`, the Activity (HT-22 [3]) is reported as “Non-Toxic”.

In the case of `C=C1CCC[C@@H]2[C@@](C)(CCC3=CC(=O)OC3C)[C@H](C)C[C@H](O)[C@@]12C` (stereo partly specified), the Activity (HT-22 [3]) is reported as “Non-Toxic”.

In the case of `C[C@@H]1C[C@H](C)C2=C(CO)CCC[C@@H]2[C@@]1(C)CCc1ccoc1`, the inhibition (HT-22 [4]) is reported as “Active” and the Activity (HT-22 [3]) is reported as “Non-Toxic”.

For `C=C1CCC[C@@H]2[C@@](C)(CC/C(=C/CO)CO)[C@H](C)C[C@H](O)[C@@]12C`, the Activity (HT-22 [3]) was “Non-Toxic”.

With `C[C@@H]1C[C@H](O)[C@]2(C)[C@H](CCC[C@]23CO[C@@](C)(O)O3)[C@@]1(C)CCc1ccoc1` the EC50 (HT-22 [5]) was 10 µM, the inhibition (HT-22 [6]) was “Active” and the Activity [7] was “inactive”. For the same compound, the inhibition (HT-22 [8]) was “inactive”, the Activity [9] was “inactive” and the inhibition (HT-22 [10]) was “inactive”. For the same compound, the inhibition (HT-22 [11]) was “inactive”, the Activity (HT-22 [12]) was “Dose-Dependent Effect” and the inhibition (HT-22 [13]) was “Dose-Dependent Effect”. For the same compound, the inhibition (HT-22 [14]) was “Dose-Dependent Effect”, the Activity (HT-22 [3]) was “Non-Toxic” and the inhibition (HT-22 [15]) was “Active”.

For `CCOC(=O)CC(=O)OC[C@@]1(O)CCC[C@@H]2[C@@](C)(CCc3ccoc3)[C@H](C)C[C@H](O)[C@]21C`, the Activity (HT-22 [3]) was “Non-Toxic”.

For `CC(=O)N(O)CCCCCNC(=O)CCC(=O)N(O)CCCCCNC(=O)CCC(=O)N(O)CCCCCN`, the Activity [7] was “Active”.

With `C=C1CCC[C@@H]2[C@@](C)(CCC3=C[C@@H](OCC)O[C@@H]3OCC)[C@H](C)C[C@H](O)[C@@]12C` the Activity (HT-22 [3]) was “Non-Toxic”.

With `C=C1CCC[C@@H]2[C@@](C)(CCC3=CC(OC)OC3=O)[C@H](C)C[C@H](O)[C@@]12C` (stereo partly specified) the IC50 (BV-2 [1]) was 41 µM and the Activity (HT-22 [3]) was “Non-Toxic”.

With `C=C1CCC[C@@H]2[C@@](C)(CCC3=C[C@H](OCC)OC3=O)[C@H](C)C[C@H](O)[C@@]12C` the Activity (HT-22 [3]) was “Non-Toxic”.

In the case of `COC1C=C(CC[C@@]2(C)[C@H](C)C[C@H](O)[C@]3(COC(C)=O)[C@@H]2CCC[C@]32CO2)C(=O)O1` (stereo partly specified), the Activity (HT-22 [3]) is reported as “Non-Toxic”.

With `C[C@@H]1C[C@H](O)[C@]2(C)[C@H](CCC[C@@]2(O)CO)[C@@]1(C)CCc1ccoc1` the inhibition (HT-22 [4]) was “Active” and the Activity (HT-22 [3]) was “Non-Toxic”.

In the case of `C[C@@H]1C[C@H](O)[C@]2(C)[C@H](CCC[C@]2(O)CO)[C@@]1(C)CCc1ccoc1`, the inhibition (HT-22 [4]) is reported as “Active” and the Activity (HT-22 [3]) is reported as “Non-Toxic”.

For `C=C1CCC[C@@H]2[C@@](C)(CCC3=C[C@H](OCC)O[C@@H]3OCC)[C@H](C)C[C@H](O)[C@@]12C`, the Activity (HT-22 [3]) was “Non-Toxic”.

For `Oc1ccc(/C=C/c2cc(O)cc(O)c2)cc1` [RESVERATROL], the IC50 (BV-2 [1]) was 32 µM.
